{
  "source": "patent US10351500B2",
  "about": "“Method of using of dihydro-resveratrol or its stilbenoid derivatives and/or chemical variants as antimicrobial agents” (Hong Kong Baptist University, priority 2015, dated 2019)",
  "tested_on": "skin color at the arms of individual human subjects",
  "assay": "skin colorimeter ITA° measurement after topical stilbenoid solution",
  "type": "in vivo",
  "description": "To determine the skin color of the individual human subjects, the initial skin conditions at the arms of the individuals are tested by the skin colorimeter MPA 5 on day 0. The individual typology angle (ITA°) is calculated by the colorimeter based on the luminance (L*) and yellow-blue component (b*) values. The greater the ITA° value, the greater the skin whiteness [S. Del Bino and F. Bernerd. Variations in skin colour and the biological consequences of ultraviolet radiation exposure. British Journal of Dermatology 2013; 169 (Suppl. 3), 33-40]. In fact, skin colors are classified into 6 major divisions: very light, light, intermediate, tan, brown and dark as listed in Table 4. Two areas (2 cm×2 cm each) are selected as treated areas whereas regions surrounding the treated areas on the arms are regarded as control areas. A volume of 200 μL of the testing stilbenoids (2% by weight dissolved in ethanol) is applied to the designated area twice a day, day and night. At the end of the first week (day 7), individuals are tested with the skin colorimeter for recording the data about using the stilbenoids for 7 days. Again, at the end of the second week (day 14), individuals are tested with the skin colorimeter for recording the data about using the stilbenoids for 14 days.",
  "data": [
    {"smiles": "Oc1ccc(CCc2cc(O)cc(O)c2)cc1", "note": "[Dihydro-resveratrol, trans-3,5,4′-trihydroxybibenzyl]", "values": [
      {"measurement": "whitening effect on skin", "setting": "2% by weight in ethanol, topical twice a day, most individuals", "result": "Overt whitening effect"},
      {"measurement": "ITA° measurement", "setting": "Individual No. 1, day 7, 2% solution topical", "result": "49.0 ± 1.732", "unit": "°"},
      {"measurement": "ITA° measurement", "setting": "Individual No. 1, day 14, 2% solution topical", "result": "52.4 ± 1.166", "unit": "°"},
      {"measurement": "ITA° measurement", "setting": "Individual No. 2, day 7, 2% solution topical", "result": "41.1 ± 3.391", "unit": "°"},
      {"measurement": "ITA° measurement", "setting": "Individual No. 2, day 14, 2% solution topical", "result": "49.8 ± 4.630", "unit": "°"},
      {"measurement": "ITA° measurement", "setting": "Individual No. 3, day 7, 2% solution topical", "result": "35.0 ± 1.000", "unit": "°"},
      {"measurement": "ITA° measurement", "setting": "Individual No. 3, day 14, 2% solution topical", "result": "33.8 ± 0.837", "unit": "°"},
      {"measurement": "ITA° measurement", "setting": "Individual No. 4, day 7, 2% solution topical", "result": "26.8 ± 2.371", "unit": "°"},
      {"measurement": "ITA° measurement", "setting": "Individual No. 4, day 14, 2% solution topical", "result": "35.2 ± 2.103", "unit": "°"},
      {"measurement": "ITA° measurement", "setting": "Individual No. 5, day 7, 2% solution topical", "result": "25.6 ± 1.817", "unit": "°"},
      {"measurement": "ITA° measurement", "setting": "Individual No. 5, day 14, 2% solution topical", "result": "27.8 ± 1.934", "unit": "°"},
      {"measurement": "ITA° measurement", "setting": "Individual No. 6, day 7, 2% solution topical", "result": "26.4 ± 2.649", "unit": "°"},
      {"measurement": "ITA° measurement", "setting": "Individual No. 6, day 14, 2% solution topical", "result": "34.6 ± 0.927", "unit": "°"},
      {"measurement": "ITA° measurement", "setting": "Individual No. 7, day 7, 2% solution topical", "result": "21.2 ± 0.837", "unit": "°"},
      {"measurement": "ITA° measurement", "setting": "Individual No. 7, day 14, 2% solution topical", "result": "23.8 ± 2.634", "unit": "°"},
      {"measurement": "ITA° measurement", "setting": "Individual No. 8, day 7, 2% solution topical", "result": "14.0 ± 2.345", "unit": "°"},
      {"measurement": "ITA° measurement", "setting": "Individual No. 8, day 14, 2% solution topical", "result": "16.2 ± 1.483", "unit": "°"},
      {"measurement": "ITA° measurement", "setting": "Individual No. 9, day 7, 2% solution topical", "result": "−5.2 ± 0.837", "unit": "°"},
      {"measurement": "ITA° measurement", "setting": "Individual No. 9, day 14, 2% solution topical", "result": "−2.2 ± 0.447", "unit": "°"}
    ]}
  ]
}
